Source: patent US20220193067A1, “QUINOLINE COMPOUND OR PHARMACEUTICALLY ACCEPTABLE SALT THEREOF FOR TREATING EWING'S SARCOMA” (CHIA TAI TIANQING PHARMACEUTICAL GROUP CO., LTD., priority 2019, published 2022)
Counter-ions that a name gives are not always drawn.

Tests used:
[1] = system: Human Ewing's sarcoma cell line A673; experiment: Proliferation of Ewing's sarcoma cells (MTT method), combination with VAC-2 regimen; assay type: cell-based; settings: combined with 2 μg/mL vincristine, 75 μg/mL doxorubicin and 500 μg/mL cyclophosphamide
Procedure: The test drugs were dissolved in dimethyl sulfoxide to prepare a 100 mmol/L mother solution, which was stored at −20° C. for later use. When in use, the mother solution was prepared with a DMEM serum culture medium to reach a required concentration; vincristine, doxorubicin and cyclophosphamide were mixed (VAC-2 regimen), and the dihydrochloride diluent of the compound of formula I was mixed with vincristine, doxorubicin and cyclophosphamide. […]
The ICso value can be measured by a conventional method in the art (e.g., MTT method), or can be measured by the following method (MTT method):
Cells in logarithmic growth phase were inoculated in a 96-well culture plate (180 μL/well, 10^5 cells/well); after 2 h of incubation at 37° C./5% CO2, the cells were added with the dihydrochloride of the compound of formula I (solutions at gradient concentrations of 0, 0.005, 0.1, 0.05, 0.1, 0.5, 1.5, 4, 12 and 30 μg/mL), 2 μg/mL vincristine, 75 μg/mL doxorubicin and 500 μg/mL cyclophosphamide, and the resulting mixtures were incubated. […] The next day, OD values were measured at 570 nm and 630 nm wavelengths using a microplate reader (SPECTRA max 190) (calculated by subtracting OD values measured at 630 nm (the control wavelength) from all OD values measured at 570 nm), and the cell growth inhibition rate was calculated according to the following equation: […]

[2] = system: human Ewing's sarcoma cells A673; experiment: Effect on growth of Ewing's sarcoma, A673 subcutaneous xenograft in nude mice; assay type: in vivo, BALB/cA-nude mice; settings: 6.25 mg/kg orally daily for 14 consecutive days; A673 subcutaneous tumors in nude mice
Procedure: The dihydrochloride salt of the compound of formula I was dissolved in water to a concentration of 25 mg/mL and then further diluted with distilled water to a concentration of […].
BALB/cA-nude mice, feeding environment: SPF grade. Nude mice were inoculated subcutaneously with human Ewing's sarcoma cells A673, and randomly grouped (d0) after tumors grew to 100-250 mm^3.
The dihydrochloride of the compound of formula I (a dosage of 6.25 mg/kg) was orally administered daily to the animals in a volume of 10 mL/kg for 14 consecutive days. The tumor volume was measured 2-3 times per week, the mice were weighed, and the data was recorded.
The equation for calculating tumor volume (V) is as follows: V=½×a×b^2, where a and b represent length and width, respectively.
T/C (%)=(T-T0)/(C-C0)×100%, where T and C represent the tumor volumes of the administration group mice and the control group (i.e., solvent group) mice, respectively, at the end of the experiment; T0 and C0 represent the tumor volumes of administration group mice and the control group (i.e., solvent group) mice, respectively, at the time of grouping and administration (d0).
The equation for calculating relative tumor volume (RTV) after administration is as follows: RTV=TV/TV0 (TV represents tumor volume at each measurement after administration, and TV0 represents tumor volume at the time of grouping and administration (d0)).

[3] = system: Human Ewing's sarcoma A673 cells; experiment: Apoptosis of Ewing's sarcoma cells, Annexin-V-FITC/PI flow cytometry; assay type: cell-based; settings: different concentrations (0-30 μg/mL) added to vincristine+doxorubicin+cyclophosphamide; 24 h
Procedure: Human Ewing's sarcoma A673 cells in logarithmic growth phase were added at 10^5 cells/well to a DMEM complete culture medium containing 2 μg/mL vincristine, 75 μg/mL doxorubicin and 500 μg/mL cyclophosphamide, and to a DMEM complete culture medium containing the dihydrochloride of the compound of formula I (at concentrations of 0, 0.005, 0.1, 0.05, 0.1, 0.5, 1.5, 4, 12 and 30 μg/mL), 2 μg/mL vincristine, 75 μg/mL doxorubicin and 500 μg/mL cyclophosphamide. The resulting mixtures were incubated for 24 h, and then the cells were collected, centrifuged at 1000 r/min for 3-5 min, and washed with PBS. Then the apoptosis of the cells was detected using an Annexin-V-FITC/PI apoptosis detection kit. The cells were resuspended in 100 μL of 1×Binding buffer solution, and 5 μL of Annexin-V-FITC and 2.5 μL of PI dye were added. The mixture was shaken and mixed well in the absence of light, reacted for 15 min at room temperature, added with 300 μL of 1×Binding buffer solution, mixed well, and then subjected to detection by a flow cytometer. The test was repeated 3 times.

Ewing's sarcoma patients = experiment: Clinical trial of capsule combined with VAC-2 regimen in Ewing's sarcoma patients; assay type: in vivo, human; settings: 12 mg capsule orally once daily, 2 weeks on/1 week off
Procedure: A clinical trial was carried out in Ewing's sarcoma patients with measurable lesions (according to RECIST 1.1) for the combination of the dihydrochloride capsule of the compound of formula I and a second therapeutic agent (VAC-2 regimen). Patients in the patient group comprised patients who had previously received chemotherapy and those who had not. The patients were orally administered with 12 mg of the dihydrochloride capsule of the compound of formula I once daily (2 weeks of treatment and 1 week of interruption constitute one treatment cycle), and meanwhile the patients were treated with the VAC-2 regimen: intravenous infusion of 2 mg of vincristine on day 1, intravenous infusion of 75 mg/m^2 of doxorubicin on day 1, and intravenous infusion of 1200 mg/m^2 of cyclophosphamide on day 1 (28 days constitute one cycle). The evaluation endpoints included: efficacy endpoints, e.g., progression-free survival (PFS), objective response rate (ORR), duration of response (DOR), stable disease (SD) rate, clinical benefit rate (CBR), overall survival (OS), etc.; safety endpoints, e.g., incidence and severity of adverse events; and quality of life.

Q: `COc1cc2c(Oc3ccc4[nH]c(C)cc4c3F)ccnc2cc1OCC1(N)CC1` [1-1-[[[4-(4-fluoro-2-methyl-1H-indol-5-yl)oxy-6-methoxyquinolin-7-yl]oxy]methyl]cyclopropylamine dihydrochloride] was tested. Which “inhibition effect on proliferation of A673 cells” value [1] did it give?
A: Its value is “definite inhibition effect”.

Q: And the “growth of Ewing's sarcoma” value [2]?
A: The value was “significantly inhibit the growth of Ewing's sarcoma”.

Q: What about the “apoptosis caused by the VAC-2 regimen” value [3] of the same molecule?
A: The value was “remarkably enhance apoptosis”.

Q: What about the overall survival (Ewing's sarcoma patients) of the same molecule?
A: Its overall survival is “can prolong overall survival”.

Q: And the “treatment of Ewing's sarcoma (efficacy)” value (Ewing's sarcoma patients)?
A: Its value is “effective for treatment of Ewing's sarcoma”.
